Test results reported in patent publication US20240254138A1, “TRICYCLIC PYRIMIDINES AS CYCLIN-DEPENDENT KINASE 7 (CDK7) INHIBITORS” (JANSSEN PHARMACEUTICA NV, priority 2021, published 2024).
Where two headings read alike, the source gives them in different places.

Tests used:
[1] = test system: RNA Polymerase II Serine 5 phosphorylation (Rpb1 CTD, downstream substrate of CDK7) in A549 cells; experiment: Imaging-based cellular RNA PolII Ser5 phosphorylation assay in A549 cells; format: cell-based, human; details: wild-type CDK7, RNA PolII Ser5 phosphorylation, averaged over all measurements; for CDK7_A549 Wild-type CDK7 (pIC50): A549 cells; for IC50: Homo sapiens, A549, A549 cells, read-out: CDK7_A549 Wild-type CDK7 (pIC50) (converted)
How it was run: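 IC50 derived by fitting % control (DMSO high, 10 μM reference low) against concentration, with Hill slope. Readout: high-content imaging of phospho-Ser5 Rpb1 CTD antibody staining in fixed, permeabilized A549 cells exposed to compound 3 h after 20 h culture in 1% FBS DMEM.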

[2] = test system: RNA Polymerase II Serine 5 phosphorylation in A549 cells overexpressing CDK7-mutant (C312S); experiment: Imaging-based cellular RNA PolII Ser5 phosphorylation assay in A549 cells overexpressing CDK7-mutant (C312S); format: cell-based, human; details: RNA PolII Ser5 phosphorylation, averaged over all measurements; for IC50: Homo sapiens, A549, A549 cells overexpressing CDK7-mutant (C312S), read-out: CDK7_A549 mutant hCDK7(pIC50) (converted); for CDK7_A549 mutant hCDK7(pIC50): A549 cells overexpressing CDK7-mutant (C312S)
How it was run: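 Readout was automated imaging of anti-phospho-Ser5 Rpb1 CTD immunofluorescence, with IC50 fitted to % control versus concentration. Cells were A549 stably overexpressing non-covalently targetable CDK7 C312S alongside wild-type, exposed to compound 3 h at 37 °C. DMSO and 10 μM reference compound served as controls.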

[3] = molecular target: CDK7/cyclinH/MAT1 trimeric complex (Homo sapiens, UniProt P50613); experiment: In vitro CDK7 assay, potency of irreversible covalent inhibitors (kinact/KI), coupled PK/LDH ADP readout at 340 nm; details: for Ki: CDK7 (20 nM enz.) (KI, μM); for kinact: read-out: CDK7 (20 nM enz.) (kinact, s^−1), 20 nM enzyme
[4] = read-out: CDK7 (20 nM enz.) (kinact/KI, M^−1*s^−1), 20 nM enzyme
[5] = read-out: CDK7 (20 nM enz.) (kobs/[I], M^−1*s^−1), 20 nM enzyme

Sequence of CDK7/cyclinH/MAT1 trimeric complex (P50613 whole entry): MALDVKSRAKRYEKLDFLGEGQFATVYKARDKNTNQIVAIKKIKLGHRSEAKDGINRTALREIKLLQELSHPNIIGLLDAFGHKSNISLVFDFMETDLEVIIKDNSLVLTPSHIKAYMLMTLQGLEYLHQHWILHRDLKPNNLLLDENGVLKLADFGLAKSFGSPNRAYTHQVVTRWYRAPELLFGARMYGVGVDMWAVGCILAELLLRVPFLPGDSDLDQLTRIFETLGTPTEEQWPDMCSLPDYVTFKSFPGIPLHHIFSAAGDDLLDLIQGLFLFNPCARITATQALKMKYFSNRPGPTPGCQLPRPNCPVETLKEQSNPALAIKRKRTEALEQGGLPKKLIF
Sequence of CDK7/cyclinH/MAT1 trimeric complex (P51946 whole entry partner): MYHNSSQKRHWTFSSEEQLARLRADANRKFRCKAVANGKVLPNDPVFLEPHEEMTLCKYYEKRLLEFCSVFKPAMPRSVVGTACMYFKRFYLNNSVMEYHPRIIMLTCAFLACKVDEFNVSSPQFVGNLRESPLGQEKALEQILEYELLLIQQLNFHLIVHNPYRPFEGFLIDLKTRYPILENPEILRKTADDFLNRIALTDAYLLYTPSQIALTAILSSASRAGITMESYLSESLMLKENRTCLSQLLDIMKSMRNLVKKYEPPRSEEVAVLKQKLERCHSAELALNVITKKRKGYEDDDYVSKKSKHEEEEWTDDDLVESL
Sequence of CDK7/cyclinH/MAT1 trimeric complex (P51948 whole entry partner): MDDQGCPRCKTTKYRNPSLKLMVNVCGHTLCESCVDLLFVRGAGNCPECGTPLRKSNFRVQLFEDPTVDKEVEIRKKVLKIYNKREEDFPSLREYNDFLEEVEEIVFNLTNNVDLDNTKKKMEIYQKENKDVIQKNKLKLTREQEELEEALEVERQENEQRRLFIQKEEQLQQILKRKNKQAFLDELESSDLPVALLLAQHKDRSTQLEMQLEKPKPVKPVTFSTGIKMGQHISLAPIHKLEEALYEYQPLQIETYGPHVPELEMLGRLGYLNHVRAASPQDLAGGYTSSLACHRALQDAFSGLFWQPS

| SMILES | CDK7_A549 Wild-type CDK7 (pIC50) [1] | IC50 [2] [nM] | CDK7 (20 nM enz.) (kinact/KI, M^−1*s^−1) ([3]; 20 nM enzyme) [M⁻¹ s⁻¹] | Ki ([3]; 20 nM enzyme) [µM] | kinact [3] [s⁻¹] | IC50 [1] [nM] | kinact/KI [3, 4] [M⁻¹ s⁻¹] | kinact/KI [3, 5] [M⁻¹ s⁻¹] | CDK7_A549 mutant hCDK7(pIC50) [2] | CDK7 (20 nM enz.) (kinact, s^−1) ([3]; 20 nM enzyme) [s⁻¹] | CDK7 (20 nM enz.) (kobs/[I], M^−1*s^−1) ([3]; 20 nM enzyme) [M⁻¹ s⁻¹] |
| --- | --- | --- | --- | --- | --- | --- | --- | --- | --- | --- | --- |
| CC#CC(=O)N1CC(N2CCC(c3cc4c(c(C)n3)O[C@H](C)c3c(N5CCOCC5)ccnc3N4)CC2)C1 (single isomer, unassigned) [Compound 370] | 7.19 | > 10000 | 206.483 | 0.112 | 2.32e-05 |  |  |  |  |  |  |
| CC#CC(=O)N1CCC(N2CC(c3cc4c(c(C5CC5)n3)O[C@@H](C)c3c(N5CCOCC5)ccnc3N4)C2)CC1 (single isomer, unassigned) [Compound 374] |  | > 10000 |  | 1.36 | 3.18e-05 | 457 | 23.3 |  |  |  |  |
| CC#CC(=O)N1CCC(N2CC(c3cc4c(c(C5CC5)n3)O[C@H](C)c3c(N5CCOCC5)ccnc3N4)C2)CC1 (single isomer, unassigned) [Compound 376] |  | 5010 |  | 0.0467 | 9.41e-05 | 35.5 | 2020 |  |  |  |  |
| C=CC(=O)N1CCC(N2CC(c3cc4c(c(C5CC5)n3)O[C@H](C)c3c(N5CCOCC5)ccnc3N4)C2)CC1 (single isomer, unassigned) [Compound 377] |  | 5750 |  | 0.0468 | 2.2e-05 | 50.1 | 469 |  |  |  |  |
| CC#CC(=O)N1CC(N2CC[C@H](c3cc4c(c(C)n3)OCc3c(N5CCOCC5)ccnc3N4)C2)C1 (single isomer, unassigned) [Compound 387] |  | > 10000 |  | 0.451 | 2.21e-05 | 977 | 49.1 |  |  |  |  |
| C=CC(=O)N1CC(N2CC[C@@H](c3cc4c(c(C)n3)O[C@@H](C)c3c(N5CCOCC5)ccnc3N4)C2)C1 (single isomer, unassigned) [Compound 392] |  | ~10000 |  | 0.0655 | 5.4e-05 | 129 | 823 |  |  |  |  |
| C=CC(=O)N1CC[C@H](N2CC(c3cc4c(c(C(F)(F)F)n3)OCc3c(N5CCOCC5)ccnc3N4)C2)C1 (single isomer, unassigned) [Compound 404] | 7.13 |  |  |  |  |  |  |  | 5.09 |  | 1280.59 |
| C=CC(=O)N1CCC(N2CCC(c3cc4c(c(C)n3)O[C@@H](C)c3c(N5CCOCC5)ccnc3N4)CC2)CC1 (single isomer, unassigned) [Compound 411] |  | > 10000 |  | 3.4 | 0.000106 | 288 | 31.3 |  |  |  |  |
| C=CC(=O)N1CC[C@@H](N2CC(c3cc4c(c(C)n3)O[C@H](C)c3c(C5CCOCC5)ccnc3N4)C2)C1 (single isomer, unassigned) [Compound 413] |  | > 10000 |  | 0.0374 | 4.94e-05 | 75.9 | 1320 |  |  |  |  |
| C=CC(=O)N1CC(N2CCC(c3cc4c(c(C)n3)O[C@@H](C)c3c(C5CCOCC5)ccnc3N4)CC2)C1 (single isomer, unassigned) [Compound 415] |  | > 10000 |  | 2.22 | 7.43e-05 | 1820 | 33.5 |  |  |  |  |
| CC#CC(=O)N1CC[C@H](N2CC(c3cc4c(c(C5CC5)n3)OCc3c(N5CCOCC5)ccnc3N4)C2)C1 (single isomer, unassigned) [Compound 418] |  | 8710 |  | 0.0692 | 2.87e-05 | 257 | 415 |  |  |  |  |
| C=CC(=O)N1CC[C@H](N2CC(c3cc4c(c(C)n3)O[C@H](C)c3c(C5CCOCC5)ccnc3N4)C2)C1 (single isomer, unassigned) [Compound 422] |  | > 10000 |  | 0.0415 | 4.6e-05 | 115 | 1110 |  |  |  |  |
| CC#CC(=O)N1CCC(N2CCC(c3cc4c(c(C)n3)O[C@@H](C)c3c(N5CCOCC5)ccnc3N4)CC2)CC1 (single isomer, unassigned) [Compound 426] |  | > 10000 |  | 0.642 | 4.43e-05 | 63.1 | 69 |  |  |  |  |
| C=CC(=O)N1CC[C@@H](N2CC(c3cc4c(c(C5CC5)n3)OCc3c(N5CCOCC5)ccnc3N4)C2)C1 (single isomer, unassigned) [Compound 427] | 6.99 |  | 1751.84 | 0.0447 |  |  |  |  | <5 | 7.839e-05 |  |
| CC#CC(=O)N1CCC(N2CC[C@@H](c3cc4c(c(C)n3)OCc3c(N5CCOCC5)ccnc3N4)C2)CC1 (single isomer, unassigned) [Compound 433] |  | 5370 |  | 0.185 | 1.89e-05 | 170 | 102 |  |  |  |  |
| CC#CC(=O)N1CC(n2cc(-c3cc4c(c(C)n3)O[C@@H](C)c3c(N5CCOCC5)ccnc3N4)cn2)C1 (single isomer, unassigned) [Compound 437] |  | > 10000 |  | 0.0822 | 2.31e-05 | 170 | 282 |  |  |  |  |
| CC#CC(=O)N1CC(N2CC(c3cc4c(c(C)n3)O[C@H](C)c3c(N5CCOCC5)ccnc3N4)C2)C1 (single isomer, unassigned) [Compound 440] | 6.79 |  | 246.333 | 0.205 |  |  |  |  | <5 | 0.000050424 |  |
| CC#CC(=O)N1CC(N2CCC(c3cc(C#N)c4c(c3)Nc3nccc(N5CCOCC5)c3[C@H](C)O4)CC2)C1 (single isomer, unassigned) [Compound 442] |  | > 10000 |  | 0.772 | 3.46e-05 | 562 | 44.8 |  |  |  |  |

Results, then the compound that gave them:

| CDK7_A549 Wild-type CDK7 (pIC50) [1] | IC50 [2] [nM] | CDK7 (20 nM enz.) (kinact/KI, M^−1*s^−1) ([3]; 20 nM enzyme) [M⁻¹ s⁻¹] | Ki ([3]; 20 nM enzyme) [µM] | kinact [3] [s⁻¹] | IC50 [1] [nM] | kinact/KI [3, 4] [M⁻¹ s⁻¹] | kinact/KI [3, 5] [M⁻¹ s⁻¹] | CDK7_A549 mutant hCDK7(pIC50) [2] | CDK7 (20 nM enz.) (kinact, s^−1) ([3]; 20 nM enzyme) [s⁻¹] | CDK7 (20 nM enz.) (kobs/[I], M^−1*s^−1) ([3]; 20 nM enzyme) [M⁻¹ s⁻¹] | SMILES |
| --- | --- | --- | --- | --- | --- | --- | --- | --- | --- | --- | --- |
|  | > 10000 |  | 0.0621 | 3.74e-05 | 70.8 | 603 |  |  |  |  | C=C(C(=O)N1CC[C@H](N2CCC(c3cc4c(c(C)n3)OCc3c(-c5cnn(C)c5)ccnc3N4)CC2)C1)n1cccn1 (single isomer, unassigned) [Compound 372] |
|  | > 10000 |  | 2.12 | 2.58e-05 | 1290 | 12.2 |  |  |  |  | C=CC(=O)N1CCC(N2CC(c3cc4c(c(C5CC5)n3)O[C@@H](C)c3c(N5CCOCC5)ccnc3N4)C2)CC1 (single isomer, unassigned) [Compound 375] |
|  | > 10000 |  | 0.399 | 1.64e-05 | 1620 | 41.1 |  |  |  |  | CC#CC(=O)N1CC(N2CC[C@@H](c3cc4c(c(C)n3)OCc3c(N5CCOCC5)ccnc3N4)C2)C1 (single isomer, unassigned) [Compound 386] |
|  | 7240 |  |  |  | ~22.9 |  | 1270 |  |  |  | C=CC(=O)N1CC[C@H](N2CC(c3cc(C)c4c(c3)Nc3nccc(N5CCOCC5)c3[C@@H](C)O4)C2)C1 (single isomer, unassigned) [Compound 388] |
|  | 6170 |  |  |  | 30.2 |  | 1630 |  |  |  | C=CC(=O)N1CC[C@@H](N2CC(c3cc(C)c4c(c3)Nc3nccc(N5CCOCC5)c3[C@@H](C)O4)C2)C1 (single isomer, unassigned) [Compound 398] |
| 7.1 |  | 1530.27 | 0.0823 |  |  |  |  | 5.15 | 0.000126 |  | C=CC(=O)N1CC[C@@H](N2CC(c3cc4c(c(C(F)(F)F)n3)OCc3c(N5CCOCC5)ccnc3N4)C2)C1 (single isomer, unassigned) [Compound 402] |
|  | 1820 |  | 0.495 | 0.000181 | ~9.77 | 366 |  |  |  |  | C=CC(=O)N1CCC(N2CCC(c3cc4c(c(C)n3)O[C@H](C)c3c(N5CCOCC5)ccnc3N4)CC2)CC1 (single isomer, unassigned) [Compound 406] |
|  | 1860 |  |  |  | < 9.77 |  | 1750 |  |  |  | CC#CC(=O)N1CCC(N2CCC(c3cc4c(c(C)n3)O[C@H](C)c3c(N5CCOCC5)ccnc3N4)CC2)CC1 (single isomer, unassigned) [Compound 416] |
| 7.02 |  | 1185.66 | 0.064 | 7.59e-05 |  |  |  | 5 |  |  | C=CC(=O)N1CC[C@H](N2CC(c3cc4c(c(C5CC5)n3)OCc3c(N5CCOCC5)ccnc3N4)C2)C1 (single isomer, unassigned) [Compound 421] |
|  | > 10000 |  | 0.0971 | 2.48e-05 | 200 | 255 |  |  |  |  | CC#CC(=O)N1CC[C@@H](N2CC(c3cc4c(c(C5CC5)n3)OCc3c(N5CCOCC5)ccnc3N4)C2)C1 (single isomer, unassigned) [Compound 425] |
|  | 4270 |  |  |  | 20.4 |  | 1430 |  |  |  | CC#CC(=O)N1CC(N2CCC(c3cc(C#N)c4c(c3)Nc3nccc(N5CCOCC5)c3C(C)O4)CC2)C1 (single isomer, unassigned) [Compound 443] |
